Laboratory results: patent US20140155445A1, “Compounds and Methods for Treating Cancer and Diseases of the Central Nervous System” (Osta Biotechnologies Inc., priority 2007, published 2014)
Entries after “also recorded” stand apart in the source; their conditions may differ. Like-named read-outs stand apart in the source and are kept apart here.

How the values were obtained:
[1] = system: SKMEL-V human melanoma cells; assay: Human melanoma model SKMEL-V+ in SCID mice (pilot study); assay type: in vivo
Excerpt: Human melanoma cells (“SKMEL-V cells”) were derived from SKMEL-24 cells (ATCC) by over expression of mouse VEGF.
Only those cells with >95% viability were used for in-vivo studies.
Once tumors reached a size of approximately 0.7 cm^3, they were removed under sterile condition, sliced into small pieces under a stereo-microscope. Each tissue piece was then reinoculated subcutaneously. Only pieces of approximately the same size and with no signs of necrosis were used.
At the end of the experiment, mice were sacrificed by cervical dislocation and full autopsies were conducted. A picture was taken of tumors from randomly selected mice. The tumors were then fixed in formalin for pathology examination.

[2] = system: SKMEL-V+ tumors (blood vessels, CD31 positive cells); assay: CD31 / H&E staining, microvessel density of SKMEL-V+ tumors; assay type: in vivo, mouse; conditions: SKMEL-V+ tumors from treated mice; hydrochloride
Description: SKMEL-V (human melanoma cells). SKMEL-V cells were derived from SKMEL-24 cells (ATCC) by overexpression of mouse VEGF. […] Tumors were either snap frozen in liquid nitrogen or fixed in 10% buffered formalin and embedded in paraffin. […] BD PharMingen, San Diego, Calif.). […] Sections were rehydrated in PBS and then blocked with 5% normal goat serum for 1 h. The sections were then incubated overnight at 4° C. with CD31 antibody diluted 1:25 in 3% BSA-PBS. […] Paraffin-embedded material was used for Harris' hematoxylin. Microvessel density was quantified using a method described by Weidner et al ([…], and Folkman […]. Med, 1991; 324:1-8). Briefly, randomly vascularized areas were selected (hot spots) under 40× field and 100× fields. Then a 400× field was used to count microvessels in each of these areas. Single endothelial cells or clusters of endothelial cells with or without lumen were considered to be individual vessels. […] All slides were examined blindly with no prior knowledge of the treatment status.

APPswe/PS1dE9 mice = assay: Behavioral studies (maze, fear conditioning) in APPswe/PS1dE9 mice; assay type: in vivo, mouse
Description: The experiments were performed at Pennington Biomedical Research Centre (PBRC) of Lousiana State University, Baton Rouge, Lousiana and were approved by the Institutional Animal Care and Use Committee (IACUC) of PBRC.
The APPswe/PS1dE9 mice were generated against a C57/BL6J background by breeding either +/+ males or females with −/− females or males, respectively.
Memantine (10 mg/kg) and both doses of QC-199 (15 mg/kg & 30 mg/kg) were prepared in batches and frozen for later use. Each compound was weighed and dissolved in injectable sterile saline solution. Memantine was prepared at a concentration of 1 mg/ml, the 15 mg/kg dose of QC-199 at a volume of 15 mg/10 ml, and the 30 mg/kg dose of QC-199 at a volume of 30 mg/10 ml. The compounds were prepared in this volume so that the mice could easily be injected based on their body weight, e.g., a 35 gram mouse was injected with 0.35 ml dosing solution.
Memantine and QC-199 dosing solutions were administered to mice via i.p. injections. The mice were weighed 3 times/week and were injected with a volume that matched their body weight. The mice were injected daily and the injection located was alternated each day to avoid potential complications from injection in the same location on a daily basis.
After reaching their respective treatment duration, the wild type and APP/PS1 double transgenic mice were run through the STM and fear conditioning. The STM consisted of one day of straight run training (running down an alley from the start box to the goal box). This phase was implemented to establish the contingency that moving forward would provide escape into the dark and dry goal box. The mice were required to reach a criterion of completing the straight run in 15 sec or less on 7 out of 9 trials over a maximum of 15 trials. […] The following day each mouse was administered 15 trials in the STM with approximately 7-10 min between each trial where they were placed into a holding cage with a towel. The latency to reach the goal box and the number of errors committed were the dependent measures of learning. However, in our experience, errors committed is much more indicative of learning and is reported for this project. Pictures of the straight run (A) and maze (B) are shown in FIG. 42, along with a schematic (C) of the maze indicating the correct path. The data from the maze was collapsed into blocks of 5 trials for data summary and presentation.
Med Associates Inc.'s MED-VFC-NIR-M NIR Video Fear Conditioning System for Mouse, Pavlovian fear conditioning was conducted after the STM. On Day 1 the mice were placed in Context 1 and given 5 tone+shock pairings. On day 2 the mice were placed back into Context 1 and their freezing response to being placed back into the original context where fear conditioning occurred was measured. Freezing is operationally defined as the cessation of all movement except that required for respiration. Freezing was measured over 10 minutes, and data were summarized in 1-min intervals. On day 3 the mice were placed into a novel context (Context 2) for 10 min. […] For the final 5 min, the tone paired with shock during fear conditioning was presented. Again, the data was summarized in 1-min intervals.
Maze data was analyzed by two-way ANOVAs to determine treatment group effects for both errors and run time after the data was collapsed into three 5 trial blocks. Planned comparisons of transgenic mice treated with saline with each of the drug treatments, memantine or QC-199 at 15 mg/kg/day and 30 mg/kg/day were conducted to evaluate group differences in the maze at each trial block and both tone and contextual fear conditioning tests. The critical a level was set at 0.05 for all statistical tests. The values in FIGS. 46A-46C represent the means±S.E.M. The data was analyzed using the SPSS statistical program version 11.0. […]

Row | SMILES | anti-tumor activity ([1]; 30 and 60 mg/kg i.p.) | tumor volumes vs vehicle alone ([1]; QC-56 30 mg/kg (P<0.03) and 60 mg/kg (P<0.02)) | potency compared with dacarbazine ([1]; QC-56 30 and 60 mg/kg vs dacarbazine 50 mg/kg) | tumor vascularization (vessel count, size, CD31) [2] | tolerability (50 mg/kg, multiple administrations) | toxicity in combination studies (QC-56 60 mg/kg i.p. 4 cycles, chemotherapy drugs i.p.) | tolerability (multiple doses up to 100 mg/kg (intraperitoneal, intravenous), hydrochloride) | tolerability (repeated doses of 30 and 60 mg/kg i.p., SCID mice, hydrochloride) | toxic single dose (single intraperitoneal dose, SCID mice) [mg/kg] | effect on maze errors and contextual fear conditioning (summary) (APPswe/PS1dE9 mice; Memantine, QC-199 15 mg/kg and 30 mg/kg, dtg mice) | maze errors vs saline-treated APP/PS1 mice (APPswe/PS1dE9 mice; QC-199 30 mg/kg/day i.p., trend at Trial Block 3 (p=0.052)) | contextual fear conditioning (freezing) vs saline-treated APP/PS1 mice (APPswe/PS1dE9 mice; QC-199 15 and 30 mg/kg/day, Memantine 10 mg/kg, Time Blocks 1-4)
1 | Brc1ccc(CCC2(Cn3ccnc3)OCCO2)cc1.Cl [QC-56, 1-((2-(2-(4-Bromophenyl)ethyl)-1,3-dioxolan-2-yl)methyl)-1H-imidazole hydrochloride] | clear anti-tumor activity | statistically significantly smaller | significantly more potent than dacarbazine | significant reduction in the density of blood vessels; also recorded: significant reduction in vascularization; also recorded: significant decrease in the size and number of blood vessels | well tolerated | No apparent toxicity | well tolerated with no apparent signs of toxicity; also recorded: well tolerated | well tolerated at repeated doses of 30 and 60 mg/kg with minor changes in body weights with no apparent toxicity; also recorded: well tolerated | > 100 |  |  | 
2 | Brc1ccc(CCCCn2ccnc2)cc1.Cl [QC-199, 1-[4-(4-bromophenyl)butyl]-1H-imidazole hydrochloride] |  |  |  |  |  |  |  |  |  | positive effect | did not exhibit improved performance at any of the Trial Blocks | none reached significance
